According to PubChem BioAssay (NCI):
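How tested: cells in 96-well plates exposed to compound for 48 hours at five concentrations. TGI denotes the concentration required for complete inhibition of growth.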

Columns and labels:
Experiment in all cases: inhibition of tumour cell growth, NCI panel, 48 h
CAKI-1 renal = test system: CAKI-1 renal
OVCAR-5 ovarian = test system: OVCAR-5 ovarian
MDA-MB-231 breast = test system: MDA-MB-231 breast
OVCAR-8 ovarian = test system: OVCAR-8 ovarian
PC-3 prostate = test system: PC-3 prostate
NCI-H23 lung = test system: NCI-H23 lung
NCI/ADR-RES ovarian = test system: NCI/ADR-RES ovarian
MCF7 breast = test system: MCF7 breast
786-0 renal = test system: 786-0 renal
UACC-62 melanoma = test system: UACC-62 melanoma
HCC-2998 colon = test system: HCC-2998 colon
HT29 colon = test system: HT29 colon
SW-620 colon = test system: SW-620 colon
RPMI-8226 leukemia = test system: RPMI-8226 leukemia
MDA-MB-435 = test system: MDA-MB-435
T-47D breast = test system: T-47D breast
NCI-H522 lung = test system: NCI-H522 lung
SNB-19 CNS = test system: SNB-19 CNS
NCI-H460 lung = test system: NCI-H460 lung
A549 NSCLC = test system: A549 NSCLC
MALME-3M melanoma = test system: MALME-3M melanoma
HOP-92 NSCLC = test system: HOP-92 NSCLC
SN12C renal = test system: SN12C renal
HCT-116 colon = test system: HCT-116 colon
SF-268 CNS = test system: SF-268 CNS
UACC-257 melanoma = test system: UACC-257 melanoma
OVCAR-4 ovarian = test system: OVCAR-4 ovarian
HCT-15 colon = test system: HCT-15 colon
M14 melanoma = test system: M14 melanoma
EKVX NSCLC = test system: EKVX NSCLC
HOP-62 NSCLC = test system: HOP-62 NSCLC
BT-549 breast = test system: BT-549 breast
SK-MEL-28 melanoma = test system: SK-MEL-28 melanoma
NCI-H226 lung = test system: NCI-H226 lung
SF-295 CNS = test system: SF-295 CNS
DU-145 prostate = test system: DU-145 prostate
CCRF-CEM leukemia = test system: CCRF-CEM leukemia
RXF 393 renal = test system: RXF 393 renal
KM12 colon = test system: KM12 colon
SK-OV-3 ovarian = test system: SK-OV-3 ovarian
SF-539 CNS = test system: SF-539 CNS
COLO 205 colon = test system: COLO 205 colon
SR leukemia = test system: SR leukemia
SK-MEL-5 melanoma = test system: SK-MEL-5 melanoma
OVCAR-3 ovarian = test system: OVCAR-3 ovarian
MOLT-4 leukemia = test system: MOLT-4 leukemia
SK-MEL-2 melanoma = test system: SK-MEL-2 melanoma
TK-10 renal = test system: TK-10 renal
HS 578T breast = test system: HS 578T breast
ACHN renal = test system: ACHN renal
SNB-75 CNS = test system: SNB-75 CNS
MDA-N = test system: MDA-N
UO-31 renal = test system: UO-31 renal
U251 CNS = test system: U251 CNS
K-562 leukemia = test system: K-562 leukemia
HL-60(TB) leukemia = test system: HL-60(TB) leukemia
IGROV1 ovarian = test system: IGROV1 ovarian
LOX IMVI melanoma = test system: LOX IMVI melanoma

Work on C[C@]12CC[C@H]3[C@@H](CCC4=C[C@@H](N5CCCC5)CC[C@@]43C)[C@@H]1C/C(=C\c1ccncc1)[C@@H]2O yielded a TGI (CAKI-1 renal) of over 100 µM, a TGI (OVCAR-5 ovarian) of 53.6 µM and a TGI (MDA-MB-231 breast) of 29.8 µM. It also gave a TGI (OVCAR-8 ovarian) of 63.5 µM, a TGI (PC-3 prostate) of 30.8 µM and a TGI (NCI-H23 lung) of 34.2 µM. It also gave a TGI (NCI/ADR-RES ovarian) of 43.9 µM, a TGI (MCF7 breast) of 26.1 µM and a TGI (786-0 renal) of 10.8 µM. It also gave a TGI (UACC-62 melanoma) of 29.9 µM, a TGI (HCC-2998 colon) of 18 µM and a TGI (HT29 colon) of 11 µM. The TGI (SW-620 colon) was 43.6 µM, the TGI (RPMI-8226 leukemia) was 28.5 µM and the TGI (MDA-MB-435) was 27.1 µM. It also gave a TGI (T-47D breast) of 65.8 µM, a TGI (NCI-H522 lung) of 24.1 µM and a TGI (SNB-19 CNS) of 30.1 µM. It also gave a TGI (NCI-H460 lung) of 26.4 µM, a TGI (A549 NSCLC) of 29.1 µM and a TGI (MALME-3M melanoma) of 27.8 µM. The TGI (HOP-92 NSCLC) was 31.2 µM, the TGI (SN12C renal) was 28.5 µM and the TGI (HCT-116 colon) was 21.1 µM. It also gave a TGI (SF-268 CNS) of 41.8 µM, a TGI (UACC-257 melanoma) of 18.7 µM and a TGI (OVCAR-4 ovarian) of 75.8 µM. For the same compound, the TGI (HCT-15 colon) was 26.2 µM, the TGI (M14 melanoma) was 5.66 µM and the TGI (EKVX NSCLC) was 49.6 µM. It also gave a TGI (HOP-62 NSCLC) of 18.3 µM, a TGI (BT-549 breast) of 38.9 µM and a TGI (SK-MEL-28 melanoma) of 24.2 µM. The TGI (NCI-H226 lung) was 33.7 µM, the TGI (SF-295 CNS) was 17.6 µM and the TGI (DU-145 prostate) was 39.5 µM. For the same compound, the TGI (CCRF-CEM leukemia) was over 100 µM, the TGI (RXF 393 renal) was 19 µM and the TGI (KM12 colon) was 31 µM. The TGI (SK-OV-3 ovarian) was 61.7 µM, the TGI (SF-539 CNS) was 28.1 µM and the TGI (COLO 205 colon) was 20.7 µM. The TGI (SR leukemia) was 12.8 µM, the TGI (SK-MEL-5 melanoma) was 25.2 µM and the TGI (OVCAR-3 ovarian) was 41.2 µM. It also gave a TGI (MOLT-4 leukemia) of over 100 µM, a TGI (SK-MEL-2 melanoma) of 30.9 µM and a TGI (TK-10 renal) of 26.5 µM. It also gave a TGI (HS 578T breast) of 36.1 µM, a TGI (ACHN renal) of 40.6 µM and a TGI (SNB-75 CNS) of 42.2 µM. It also gave a TGI (MDA-N) of 24.9 µM, a TGI (UO-31 renal) of 18.4 µM and a TGI (U251 CNS) of 28.5 µM. It also gave a TGI (K-562 leukemia) of over 100 µM, a TGI (HL-60(TB) leukemia) of 41.8 µM and a TGI (IGROV1 ovarian) of 64.6 µM. It also gave a TGI (LOX IMVI melanoma) of 21.4 µM.
